Literature values in US20060074100A1, “Histone deacetylase inhibitors for the treatment of ocular neovascular or edematous disorders and diseases” (priority 2002, published 2006).

Columns and labels:
cancer cell [1] = system: cancer cell
cancer cell [2] = settings: in vitro
tumors = settings: animal models
[3] = phase I clinical trials
[4] = system: corneal neovascularization; settings: in combination with a beta cyclodextrin

O=C(CCCCCCC(=O)Nc1ccccc1)NO [SAHA, suberoylanilide hydroxamic acid]
induction of cancer cell differentiation (cancer cell [1]): potent inducer of cancer cell differentiation | cancer cell growth (cancer cell [2]): arrest cancer cell growth in vitro | tumor size (tumors): shrink tumors in animal models | dose-limiting toxicity [3]: almost no dose-limiting toxicity | suppression of white blood cell production [3]: no suppression of white blood cell production

C[C@]12CCC(=O)C=C1CC[C@@H]1[C@@H]2[C@@H](O)C[C@@]2(C)[C@H]1CC[C@]2(O)C(=O)CO [hydrocortisone]
inhibition of corneal neovascularization [4]: inhibit corneal neovascularization

C[C@@H]1C[C@H]2[C@@H]3C[C@H](F)C4=CC(=O)CC[C@]4(C)C3=CC[C@]2(C)[C@@]1(O)C(=O)CO [U-72,745G]
inhibition of corneal neovascularization [4]: inhibit corneal neovascularization

C[C@]12CC[C@@H](O)C[C@H]1CC[C@@H]1[C@@H]2CC[C@@]2(C)[C@H]1CC[C@]2(O)C(=O)CO [tetrahydrocortisol-S]
inhibition of corneal neovascularization [4]: inhibit corneal neovascularization
